Measured values: ChEMBL document CHEMBL5223146, “Synthesis of esters and amides of 2-aryl-1-hydroxy-4-methyl-1H-imidazole-5-carboxylic acids and study of their antiviral activity against orthopoxviruses” (Bioorg Med Chem Lett, 2023)

How the values were obtained:
[1] = Selectivity index, ratio of CC50 for African green monkey Vero cells to IC50 for ectromelia virus K-1 infected in Vero cells; type: toxicity, cell-based; conditions: read-out: Ratio CC50/IC50
[2] = (§1) Cytotoxicity against African green monkey Vero cells measured after 4 days by colorimetric assay; type: toxicity, cell-based; conditions: chlorocebus sabaeus, Vero cells; time 4 day
[3] = system: Vaccinia virus; experiment: Antiviral activity against Vaccinia virus Copenhagen infected in Vero cells measured after 4 days by colorimetric assay; type: functional, organism-based, Orthopoxvirus vaccinia
[4] = system: Influenza A virus; experiment: Antiviral activity against Influenza A virus (A/California/07/2009(H1N1)) infected in MDCK cells measured after 4 days by colorimetric assay; type: functional, organism-based
[5] = Selectivity index, ratio of CC50 for African green monkey Vero cells to IC50 for Cowpox virus Grishak infected in Vero cells; type: toxicity, cell-based; conditions: read-out: Ratio CC50/IC50
[6] = system: Cowpox virus; experiment: Antiviral activity against Cowpox virus Grishak infected in Vero cells measured after 4 days by colorimetric assay; type: functional, organism-based; conditions: 96 h
[7] = (§2) Cytotoxicity against MDCK cells measured after 4 days by colorimetric assay; type: toxicity, cell-based, Canis lupus familiaris; conditions: dog, MDCK cells; time 4 day
[8] = Selectivity index, ratio of CC50 for African green monkey Vero cells to IC50 for Vaccinia virus Copenhagen infected in Vero cells; type: toxicity, cell-based; conditions: read-out: Ratio CC50/IC50
[9] = system: Ectromelia virus; experiment: Antiviral activity against ectromelia virus K-1 infected in Vero cells measured after 4 days by colorimetric assay; type: functional, organism-based; conditions: K-1, Vero, 96 h
[10] = system: MDCK; experiment: as §2; type: toxicity, cell-based, Canis lupus familiaris; conditions: dog, mdck, 96 h; time 4 day
[11] = Selectivity index, ratio of CC50 for MDCK cells to IC50 for Influenza A virus (A/California/07/2009(H1N1)) infected in MDCK cells; type: toxicity, cell-based; conditions: dog, read-out: Ratio CC50/IC50
[12] = system: Vero; experiment: as §1; type: toxicity, cell-based; conditions: chlorocebus sabaeus, vero, 96 h; time 4 day
[13] = Orthopoxvirus vaccinia, Copenhagen, Vero, 96 h, read-out: IC50
[14] = Influenza A virus, A/California/07/2009(H1N1), MDCK, 96 h, read-out: IC50

Structure (SMILES)	selectivity ratio [1]	CC50 at 96 h [2] [µM]	IC50 [3, 13] [µM]	IC50 ([4]; mdck)	selectivity ratio [5]	IC50 [6] [µM]	CC50 at 96 h [7] [µM]	selectivity ratio [8]	IC50 [9] [µM]	IC50 ([3]; vero)	CC50 [10] [µM]	selectivity ratio [11]	IC50 [4, 14] [µM]	CC50 [12] [µM]
CCOC(=O)c1c(O)nc(-c2ccc(C(F)(F)F)cc2)n1O	46	322	0.35	Not Active	32	10	> 318	919	6.75	–	–	–	–	–
CCCCNC(=O)c1c(O)nc(-c2cccc([N+](=O)[O-])c2)n1O	–	164	17.6	Not Active	–	–	> 314	9	–	–	–	–	–	–
CCCCNC(=O)c1c(O)nc(-c2ccccc2O)n1O	–	197	15	Not Active	–	–	42.9	13	–	–	–	–	–	–
CCCCNC(=O)c1c(O)nc(-c2ccccc2)n1O	–	436	73.4	Not Active	–	–	> 366	6	–	–	–	–	–	–
CCOC(=O)c1c(O)nc(-c2ccccc2[N+](=O)[O-])n1O	–	343	–	Not Active	–	–	> 344	–	–	Not Active	–	–	–	–
CCCCNC(=O)c1c(O)nc(-c2ccc(C(F)(F)F)cc2)n1O	–	26	3.4	Not Active	–	–	–	8	–	–	12.9	–	–	–
CCOC(=O)c1c(O)nc(-c2ccccc2O)n1O	77	1830	15.5	Not Active	58	31.4	> 382	117	23.6	–	–	–	–	–
O=C(NC1CC1)c1c(O)nc(-c2ccc([N+](=O)[O-])cc2)n1O	24	357	10.7	Not Active	16	22.1	> 331	33	14.7	–	–	–	–	–
O=C(NC1CC1)c1c(O)nc(-c2ccccc2[N+](=O)[O-])n1O	–	> 331	–	Not Active	–	–	> 331	–	–	Not Active	–	–	–	–
O=C(NC1CC1)c1c(O)nc(-c2ccccc2)n1O	–	> 389	–	Not Active	–	–	> 389	–	–	Not Active	–	–	–	–
O=C(NC1CC1)c1c(O)nc(-c2ccc(C(F)(F)F)cc2)n1O	–	202	20.6	Not Active	–	–	> 308	10	–	–	–	–	–	–
CCOC(=O)c1c(O)nc(-c2ccc([N+](=O)[O-])cc2)n1O	43	45.7	0.45	–	14	3.23	> 344	102	1.07	–	–	1.8	188	–
CCOC(=O)c1c(O)nc(-c2ccccc2)n1O	–	172	–	–	–	–	> 406	–	–	Not Active	–	1.9	213	–
Nc1ccn(C[C@@H](CO)OCP(=O)(O)O)c(=O)n1 [CIDOFOVIR]	29	–	32.5	–	21	46.4	–	30	34	–	–	–	–	989
CCOC(=O)c1c(O)nc(-c2cccc([N+](=O)[O-])c2)n1O	–	375	–	–	–	–	> 344	–	–	Not Active	–	2.9	118	–
O=C(NC1CC1)c1c(O)nc(-c2cccc([N+](=O)[O-])c2)n1O	–	261	–	Not Active	–	–	> 331	–	–	Not Active	–	–	–	–
O=C(NNC(=O)C1C2C=CC(C3CC23)C1C(=O)O)c1ccc(C(F)(F)F)cc1 (centres undefined)	157	–	0.0076	–	58.8	0.0203	–	157	0.0076	–	–	–	–	1190
O=C(NC1CC1)c1c(O)nc(-c2ccccc2O)n1O	–	–	–	Not Active	–	–	–	–	–	Not Active	> 366	–	–	299
CCCCNC(=O)c1c(O)nc(-c2ccc([N+](=O)[O-])cc2)n1O	23	201	3.02	Not Active	16	12.3	27.2	66	8.9	–	–	–	–	–
CCCCNC(=O)c1c(O)nc(-c2ccccc2[N+](=O)[O-])n1O	–	> 314	–	Not Active	–	–	> 314	–	–	Not Active	–	–	–	–
